{"source": "patent US20220401385A1", "about": "“Combination Therapy Based on PD-1 Signaling Inhibitors” (Kyoto University, priority 2019, published 2022)", "key": {"CD44 low CD8+ T cells [1]": {"test_system": "CD44 low CD8+ T cells", "experiment": "PI and Annexin apoptosis assay, CD44 low cells", "format": "cell-based, mice", "conditions": "in the presence of SPD 0.2 μM", "experimental": "FIG. 4 CD8^+ T cells were isolated from the spleen of mice without tumor inoculation, and further isolated into CD44^+ (CD44 high) and CD44^− (CD44 low) cell populations. a) CD44 low cells were simulated with CD3/CD28 antibody beads and SPD (0.2 μM). After 30 minutes, 1 hour, 2 hours and 72 hours, OCR was measured with a Seahorse analyzer. b) At the same time, total ATP production and glycolytic pathway-derived or mitochondrial activity-derived ATP production were calculated at 30-minute, 1-hour and 2-hour. c) CD44 low cells (2×10^5 cells) were stimulated with CD3/CD28 antibody beads and SPD (0.2 μM). After 24 hours, cell proliferation was examined by means of 3H uptake. d) Spare respiratory capacity (SRC) was calculated from the OCR measurement after 72 hours in a), and results with and without SPD were compared. e) CD44 low cells were stimulated with CD3/CD28 antibody beads and SPD (0.2 μM). After 24 hours, frequencies between apoptotic and viable cells were calculated by PI and Annexin staining. f-j) CD44 high cells were analyzed under the same conditions and by the same methods as described in a-e) above. […] All flow cytometry experiments were performed on FACS Canto II (BD Biosciences) and analyzed using FlowJo software (FLOWJO, LLC). […]"}, "CD8+ T cells [2]": {"test_system": "CD8+ T cells", "experiment": "Seahorse ATP production and SRC of draining lymph node CD8+ T cells of treated aged mice", "format": "in vivo", "conditions": "56-week old mice, SPD combination treatment group", "experimental": "(§1) FIG. 7 MC38 cells (5×10^5) were intradermally inoculated into 56-week old mice, which were treated along with the treatment schedule described in FIG. 1. PD-L1 antibody (2 mg/kg) and SPD (2 mg/kg) were used. a) Tumor growth curve and survival curve are shown. b) The frequency of CD8^+ T cells among lymphocytes infiltrating into tumor (in CD45^+ gate) and the absolute number of CD8^+ T cells per mg tumor 13 days after tumor inoculation are shown. c) CD8^+ T cells were isolated from spleen cells on the same schedule as b) and cultured for 20 hours under the stimulation with CD3/CD28. Cell proliferation was examined by means of ^3H uptake. d) CD8^+ T cells were isolated from draining lymph nodes on the same schedule as b) and glycolytic pathway-derived or mitochondrial metabolism-derived ATP production was calculated by Seahorse. e) Spare respiratory capacity (SRC) was also calculated in the experiment (d).\nOxygen consumption rates were measured using an XF96 Extracellular Flux Analyzer (Seahorse Bioscience). CD8^+ T cells (4×10^5) per well were seeded in a determined XF96 plate. […] In brief, basal OCR measurement was performed […] sequential addition of oligomycin, FCCP, and rotenone/antimycin A. SRC and ATP production rates were calculated by the following formulas: […]"}, "CD8+ T cells [3]": {"test_system": "CD8+ T cells", "experiment": "Proliferation (3H uptake) of spleen CD8+ T cells of treated aged mice", "format": "in vivo", "conditions": "56-week old mice; SPD combination group; 20 hours CD3/CD28, 3H uptake", "experimental": "as §1\nIt is known from mouse model experiments that the effect of PD-1 inhibitory antibody therapy decreases in aged mice due to their decreased immunity. […] CD8^+ T cells were isolated from draining lymph nodes 13 days after tumor inoculation and glycolytic pathway-derived or mitochondrial metabolism-derived ATP production was calculated by Seahorse. Spare respiratory capacity (SRC) was also calculated. […]"}, "CD44 low CD8+ T cells [4]": {"test_system": "CD44 low CD8+ T cells", "experiment": "Seahorse OCR, ATP production and SRC in vitro, CD44 low cells", "format": "cell-based, mice", "conditions": "SPD 0.2 μM", "experimental": "FIG. 4 CD8^+ T cells were isolated from the spleen of mice without tumor inoculation, and further isolated into CD44^+ (CD44 high) and CD44^− (CD44 low) cell populations. a) CD44 low cells were simulated with CD3/CD28 antibody beads and SPD (0.2 μM). After 30 minutes, 1 hour, 2 hours and 72 hours, OCR was measured with a Seahorse analyzer. b) At the same time, total ATP production and glycolytic pathway-derived or mitochondrial activity-derived ATP production were calculated at 30-minute, 1-hour and 2-hour. c) CD44 low cells (2×10^5 cells) were stimulated with CD3/CD28 antibody beads and SPD (0.2 μM). After 24 hours, cell proliferation was examined by means of 3H uptake. d) Spare respiratory capacity (SRC) was calculated from the OCR measurement after 72 hours in a), and results with and without SPD were compared. e) CD44 low cells were stimulated with CD3/CD28 antibody beads and SPD (0.2 μM). After 24 hours, frequencies between apoptotic and viable cells were calculated by PI and Annexin staining. f-j) CD44 high cells were analyzed under the same conditions and by the same methods as described in a-e) above. As regards statistical analysis, t-test was used for comparison of two groups, and ANOVA was used for comparison of three or more groups. * p<0.05, ** p<0.01, *** p<0.001, **** p<0.0001.\nOxygen consumption rates were measured using an XF96 Extracellular Flux Analyzer (Seahorse Bioscience). CD8^+ T cells (4×10^5) per well were seeded in a determined XF96 plate. The four chemical modulators of mitochondrial oxidative phosphorylation, which came with an XF Cell Mito Stress Test Kit (Seahorse Bioscience), were added to the module sequentially. In brief, basal OCR measurement was performed […] sequential addition of oligomycin, FCCP, and rotenone/antimycin A. SRC and ATP production rates were calculated by the following formulas:\nSRC (pmo; 02/min)=OCRmaximal−OCRbasal\nmitoATP (pmol ATP/min)=(OCRbasal−OCRoligo)×5.5."}}, "note": "“Also recorded” adds a separate entry of the source."}
{"smiles": "NCCCCNCCCN", "note": "[SPD, spermidine]", "values": [{"measurement": "apoptotic cells", "setting": "CD44 low CD8+ T cells [1]", "result": "decreased"}, {"measurement": "viable cells", "setting": "CD44 low CD8+ T cells [1]", "result": "increased; also recorded: significantly high"}, {"measurement": "SRCs of CD8+ T cells", "setting": "CD8+ T cells [2]", "result": "increased"}, {"measurement": "production of ATP, mitochondrial metabolism-dependent", "setting": "CD8+ T cells [2]", "result": "increased"}, {"measurement": "proliferative activation of spleen CD8+ T cells", "setting": "CD8+ T cells [3]", "result": "enhanced"}, {"measurement": "mitochondrial oxygen consumption (OCR)", "setting": "CD44 low CD8+ T cells [4]; 30 minutes, 1 hour, 2 hours and 72 hours after stimulation", "result": "increased"}, {"measurement": "ATP production via glycolytic pathway (glyco ATP)", "setting": "CD44 low CD8+ T cells [4]; 1 hour after stimulation", "result": "significantly high"}, {"measurement": "ATP production via intramitochondrial pathway (mito ATP)", "setting": "CD44 low CD8+ T cells [4]; 1 hour after stimulation", "result": "significantly high"}, {"measurement": "spare respiratory capacity (SRC)", "setting": "CD44 low CD8+ T cells [4]; 72 hours", "result": "enhanced; also recorded: significantly high"}]}
